# Results from ChEMBL document CHEMBL1154717.
# Active and inactive are the calls of the source. No cut-off for these calls is given here.
# Tests used:
# [1] = Oral bioavailability in Sprague-Dawley rat at 25 mg/kg; type: ADME, organism-based; details: in vivo
# [2] = Terminal half life in Sprague-Dawley rat at 25 mg/kg, po; type: ADME, organism-based; parameters: dose 25 mg/kg, route oral; details: in vivo, read-out: beta t1/2 (converted)
# [3] = Cmax in Sprague-Dawley rat at 25 mg/kg, po; type: ADME, organism-based; parameters: dose 25 mg/kg, route oral; details: in vivo
# HCT-116 [4] = test: cells; details: Homo sapiens, HCT-116, 96 h
# HCT-116 [5] = test: cells; details: Homo sapiens, HCT-116, 96 h; remark: listed apart in the source
# Rattus norvegicus [6] = test: AUC (0 to t) in Sprague-Dawley rat at 25 mg/kg, po; type: ADME, organism-based, Plasma; parameters: dose 25 mg/kg, route oral; details: in vivo
# SJSA-1 [7] = test: Induction of cell death in human SJSA1 cells at 1. 25 uM after 2 days by trypan blue staining; type: functional
# SJSA-1 [8] = test: Induction of cell death in human SJSA1 cells by trypan blue staining; type: functional, cell-based
# [9] = target: T1, Tumour suppressor p53/oncoprotein Mdm2 (Homo sapiens) (UniProt P04637+Q00987); test: Inhibition of MDM2-p53 interaction in human SJSA1 cells expressing wild type p53 assessed as increase in MDM2 protein level at 10 uM by Western blot; type: cell-based; details: SJSA-1
# [10] = target: T1, Tumour suppressor p53/oncoprotein Mdm2 (Homo sapiens); test: Inhibition of MDM2-p53 interaction in human SJSA1 cells expressing wild type p53 assessed as increase in p21 protein level at 10 uM by Western blot; type: cell-based; details: SJSA-1
# Rattus norvegicus [11] = test: AUC (0 to t) in Sprague-Dawley rat at 50 mg/kg, po; type: ADME, organism-based, Plasma; parameters: dose 50 mg/kg, route oral; details: in vivo
# [12] = Terminal half life in Sprague-Dawley rat at 50 mg/kg, po; type: ADME, organism-based; parameters: dose 50 mg/kg, route oral; details: in vivo, read-out: beta t1/2 (converted)
# [13] = Oral bioavailability in Sprague-Dawley rat at 50 mg/kg; type: ADME, organism-based; details: in vivo
# Mus musculus [14] = test: Toxicity in mouse xenografted with human SJSA1 cells assessed as occurrence of toxicity symptoms at 300 mg/kg, po qd for 14 days relative to untreated control; type: organism-based, SJSA-1; parameters: dose 300 mg/kg, route oral; details: in vivo, 336 h
# Mus musculus [15] = test: Toxicity in mouse xenografted with human SJSA1 cells assessed as weight loss at 300 mg/kg, po qd for 14 days relative to untreated control; type: organism-based, SJSA-1; parameters: dose 300 mg/kg, route oral; details: in vivo, 336 h
# [16] = Cmax in Sprague-Dawley rat at 50 mg/kg, po; type: ADME, organism-based; parameters: dose 50 mg/kg, route oral; details: in vivo
# SAOS-2 = test: Induction of cell death in human Saos2 cells deficient in wild type p53 at 10 uM by trypan blue staining; type: functional, cell-based
# T1 sequence (P04637 whole entry, looked up): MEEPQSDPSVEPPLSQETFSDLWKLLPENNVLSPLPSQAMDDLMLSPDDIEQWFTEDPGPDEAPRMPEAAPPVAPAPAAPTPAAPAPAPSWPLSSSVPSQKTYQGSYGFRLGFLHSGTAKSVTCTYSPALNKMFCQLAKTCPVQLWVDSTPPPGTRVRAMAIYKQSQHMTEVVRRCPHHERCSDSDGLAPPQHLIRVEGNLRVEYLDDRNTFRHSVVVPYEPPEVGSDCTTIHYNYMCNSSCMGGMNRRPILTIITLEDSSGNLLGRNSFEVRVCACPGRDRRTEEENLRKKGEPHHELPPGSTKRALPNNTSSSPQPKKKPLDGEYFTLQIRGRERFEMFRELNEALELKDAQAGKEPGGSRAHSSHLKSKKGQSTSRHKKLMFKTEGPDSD
# T1 sequence (Q00987 whole entry, looked up): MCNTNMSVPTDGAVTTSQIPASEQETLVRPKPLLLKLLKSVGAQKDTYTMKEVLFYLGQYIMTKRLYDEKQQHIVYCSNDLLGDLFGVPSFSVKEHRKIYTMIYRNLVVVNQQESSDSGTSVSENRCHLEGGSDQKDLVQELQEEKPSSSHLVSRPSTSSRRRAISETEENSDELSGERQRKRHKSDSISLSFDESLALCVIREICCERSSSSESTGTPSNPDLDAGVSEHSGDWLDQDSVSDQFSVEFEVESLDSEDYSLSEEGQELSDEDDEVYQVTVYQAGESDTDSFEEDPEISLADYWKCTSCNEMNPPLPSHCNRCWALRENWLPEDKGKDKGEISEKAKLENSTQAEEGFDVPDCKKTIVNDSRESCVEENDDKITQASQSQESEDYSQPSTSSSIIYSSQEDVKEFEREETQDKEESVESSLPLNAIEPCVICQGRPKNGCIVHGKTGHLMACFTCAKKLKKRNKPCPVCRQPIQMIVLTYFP
smiles,measurement,setting,value
COCCOCCNC(=O)[C@@H]1N[C@H](CC(C)(C)C)[C@]2(C(=O)Nc3cc(Cl)ccc32)[C@H]1c1cccc(Cl)c1F,bioavailability,[1],5%
same,half-life,[2],1.2 h
same,Cmax,[3],97 ng/mL
same,IC50,HCT-116 [4],800 nM
CN1CCC(CCNC(=O)[C@@H]2N[C@H](CC(C)(C)C)[C@]3(C(=O)Nc4cc(Cl)ccc43)[C@H]2c2cccc(Cl)c2F)CC1,bioavailability,[1],14%
same,half-life,[2],7.1 h
same,Cmax,[3],120 ng/mL
same,IC50,HCT-116 [4],400 nM
same,IC50,HCT-116 [5],7300 nM
CN1CCN(CCNC(=O)[C@@H]2N[C@H](CC(C)(C)C)[C@]3(C(=O)Nc4cc(Cl)ccc43)[C@H]2c2cccc(Cl)c2F)CC1,bioavailability,[1],31%
same,half-life,[2],3.8 h
same,Cmax,[3],274 ng/mL
same,IC50,HCT-116 [4],400 nM
CC(C)(C)C[C@H]1N[C@@H](C(=O)NC[C@H](O)CO)[C@H](c2cccc(Cl)c2)[C@@]12C(=O)Nc1cc(Cl)c(F)cc12,bioavailability,[1],18%
same,half-life,[2],3.2 h
same,Cmax,[3],2070 ng/mL
same,IC50,HCT-116 [4],1300 nM
same,IC50,HCT-116 [5],23600 nM
CC(C)(C)C[C@H]1N[C@@H](C(=O)NCC[C@@H](O)CO)[C@H](c2cccc(Cl)c2)[C@@]12C(=O)Nc1cc(Cl)c(F)cc12,bioavailability,[1],31%
same,half-life,[2],3.4 h
same,AUC,Rattus norvegicus [6],11700 ng·h/mL
same,Cmax,[3],3550 ng/mL
same,IC50,HCT-116 [4],2800 nM
same,IC50,HCT-116 [5],32800 nM
CC(C)(C)C[C@H]1N[C@@H](C(=O)NCC[C@H](O)CO)[C@H](c2cccc(Cl)c2)[C@@]12C(=O)Nc1cc(Cl)c(F)cc12,bioavailability,[1],65%
same,half-life,[2],1.4 h
same,Activity,SJSA-1 [7],20%
same,Activity,SJSA-1 [8],Dose-dependent effect
same,Cmax,[3],3750 ng/mL
same,IC50,HCT-116 [4],1100 nM
same,IC50,HCT-116 [5],24800 nM
COc1ccc2c(c1)NC(=O)[C@]21[C@@H](CC(C)(C)C)N[C@@H](C(=O)N(C)C)[C@@H]1c1cccc(Br)c1,Activity,[9],inactive
same,Activity,[10],inactive
CC(C)(C)C[C@H]1N[C@@H](C(=O)NCC[C@H](O)CO)[C@H](c2cccc(Cl)c2)[C@@]12C(=O)Nc1cc(Cl)ccc12,bioavailability,[1],19%
same,half-life,[2],3 h
same,Cmax,[3],805 ng/mL
same,IC50,HCT-116 [4],800 nM
CC(C)(C)C[C@H]1N[C@@H](C(=O)NCC[C@H](O)CO)[C@H](c2cccc(Cl)c2F)[C@@]12C(=O)Nc1cc(Cl)ccc12,AUC,Rattus norvegicus [11],8770 ng·h/mL
same,Activity,SJSA-1 [7],50%
same,half-life,[12],3.9 h
same,Activity,SJSA-1 [8],Dose-dependent effect
same,bioavailability,[13],21%
same,Activity,Mus musculus [14],Non-toxic
same,IC50,HCT-116 [4],400 nM
same,IC50,HCT-116 [5],16000 nM
same,Activity,Mus musculus [15],Non-toxic
same,Cmax,[16],1510 ng/mL
same,Activity,SAOS-2,inactive
CC(C)(C)C[C@H]1N[C@@H](C(=O)NCCN2CCOCC2)[C@H](c2cccc(Cl)c2F)[C@@]12C(=O)Nc1cc(Cl)ccc12,bioavailability,[1],10%
same,half-life,[2],1.3 h
same,Cmax,[3],248 ng/mL
same,IC50,HCT-116 [4],700 nM
